From patent publication US9617256B2 (priority 2007, dated 2017)
In brackets after ≈: the same amount, converted by molar mass. Like-named read-outs stand apart in the source and are kept apart here.

Key:
AECO001 (ATCC25922) = experiment: MIC broth microdilution, AECO001; assay type: cell-based, E. coli; conditions: for MIC: Escherichia coli
Summary of the method: (§1)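 Incubation: 35° C., ambient air, 18-24 h. Medium: cation-adjusted Mueller-Hinton broth with 2-fold serial dilutions of drug. Inoculum: 3×10^5–7×10^5 CFU/mL final, per CLSI microdilution method.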

[1] = tested on: AECO063 (ATCC25922 bearing an acrAB mutation); experiment: microbe, parasite or virus in culture; assay type: cell-based, E. coli; conditions: for MIC: Escherichia coli, ATCC25922, read-out: MIC AECO063
Summary of the method: as §1

APAE001 (ATCC27853) = experiment: MIC broth microdilution, APAE001; assay type: cell-based, P. aeruginosa; conditions: for MIC: Pseudomonas aeruginosa
Summary of the method: as §1

[2] = tested on: APAE006 (strain of P. aeruginosa in which all efflux pumps are inactivated); experiment: microbe, parasite or virus in culture; assay type: cell-based; conditions: for MIC: Pseudomonas aeruginosa
Summary of the method: (§2)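 MICs come from broth microdilution in cation-adjusted Mueller-Hinton broth, final inoculum 3×10^5–7×10^5 CFU/mL, 18-24 hours at 35° C. Levofloxacin and QC strains served as assay controls.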

[3] = tested on: AABA1060 (clinical isolate of Acinetobacter baumannii); experiment: MIC broth microdilution, AABA1060; assay type: cell-based; conditions: for MIC: Acinetobacter baumannii, read-out: MIC AABA1060
Summary of the method: as §1

[4] = tested on: ASAU001 (laboratory strain of S. aureus, ATCC29213); experiment: MIC broth microdilution, ASAU001; assay type: cell-based; conditions: for MIC: Staphylococcus aureus, ATCC29213, read-out: MIC ASAU001
Summary of the method: as §1

AECO001 HSA AGP = experiment: MIC broth microdilution, AECO001 HSA AGP; assay type: cell-based, E. coli; conditions: for MIC: Escherichia coli
Protocol: Bacterial isolates were cultivated from −70° C. frozen stocks by overnight passages at 35° C. in ambient air on Mueller-Hinton agar (Beckton Dickinson, Franklin Lakes, N.J.). Clinical isolates tested were obtained from various geographically diverse hospitals in the US and abroad (Focus Diagnostics, Herndon, Va. and JMI, North Liberty, Iowa). Quality control strains were from the American Type Culture Collection (ATCC; Rockville, Md.). Additional primary panel strains were generated using standard molecular biology techniques.
Minimum Inhibitory Concentrations (MICs) were determined by the broth microdilution method in accordance with the Clinical and Laboratory Standards Institute (CLSI) guidelines. In brief, organism suspensions were adjusted to a 0.5 McFarland standard to yield a final inoculum between 3×10^5 and 7×10^5 colony-forming units (CFU)/mL. Drug dilutions and inocula were made in sterile, cation adjusted Mueller-Hinton Broth (Beckton Dickinson). An inoculum volume of 100 μL was added to wells containing 100 μL of broth with 2-fold serial dilutions of drug. All inoculated microdilution trays were incubated in ambient air at 35° C. for 18-24 hours. […] Performance of the assay was monitored by the use of laboratory quality-control strains and levofloxacin, a compound with a defined MIC spectrum, in accordance with CLSI guidelines.
*AECO001 is ATCC25922, AECO063 is ATCC25922 bearing an acrAB mutation, APAE001 is ATCC27853, APAE006 is a strain of P. aeruginosa in which all efflux pumps are inactivated, APAE006+PMBN indicates MICs with the indicated strain in the presence of 8 micrograms per milliliter of polymyxin B nonapeptide, AABA1060 is a clinical isolate of Acinetobacter baumannii, ASAU001 is a laboratory strain of S. aureus (ATCC29213).

[5] = tested on: APAE006 in the presence of 8 micrograms per milliliter of polymyxin B nonapeptide; assay type: cell-based, P. aeruginosa; conditions: APAE006 with 8 micrograms per milliliter polymyxin B nonapeptide
Summary of the method: as §2

[6] = ATCC25922, read-out: MIC AECO001
[7] = ATCC27853, read-out: MIC APAE001, APAE001 is ATCC27853
[8] = read-out: MIC APAE006, P. aeruginosa, all efflux pumps inactivated
[9] = ATCC25922, read-out: MIC AECO001 HSA AGP
[10] = ATCC27853, read-out: MIC APAE001, APAE001 (ATCC27853)
[11] = read-out: MIC APAE006, APAE006, all efflux pumps inactivated

Row | Compound | MIC AECO001 (AECO001 (ATCC25922); AECO001 is ATCC25922) | MIC AECO063 ([1]; ATCC25922 bearing an acrAB mutation) | MIC APAE001 (APAE001 (ATCC27853); APAE001 is ATCC27853) | MIC APAE006 ([2]; P. aeruginosa, all efflux pumps inactivated) | MIC AABA1060 ([3]; clinical isolate of Acinetobacter baumannii) | MIC ASAU001 ([4]; S. aureus ATCC29213) | MIC AECO001 HSA AGP (AECO001 HSA AGP) | MIC (AECO001 (ATCC25922); [6]) | MIC [1] | MIC (APAE001 (ATCC27853); [7]) | MIC [2, 8] | MIC [3] | MIC [4] | MIC (AECO001 HSA AGP) | MIC (AECO001 (ATCC25922); [9]) | MIC (APAE001 (ATCC27853); [10]) | MIC [2, 11] | MIC APAE006 + PMBN [5]
1 | C[C@@H](N)[C@H](NC(=O)c1ccc(CCc2ccc(CN3CCOCC3)cc2)cc1)C(=O)NO [Example 137-1] | A (MIC's of 2.0 μg/mL or less = A) | A (MIC's of 2.0 μg/mL or less = A) | B (MIC's of greater than 2.0 μg/mL to 16.0 μg/mL = B) | A (MIC's of 2.0 μg/mL or less = A) | D (MIC's of greater than 64.0 μg/mL = D) | D (MIC's of greater than 64.0 μg/mL = D) | B (MIC's of greater than 2.0 μg/mL to 16.0 μg/mL = B) | – | – | – | – | – | – | – | – | – | – | –
2 | CC(O)[C@H](NS(=O)(=O)c1ccc(C#Cc2ccc(CN3CCOCC3)cc2)cc1)C(=O)NO (stereo partly shown) [Example 62-7] | – | – | – | – | – | – | – | 16 to 64 µg/mL (≈ 33.8 to 135 µM) | 2 to 16 µg/mL (≈ 4.22 to 33.8 µM) | > 64 µg/mL | 2 to 16 µg/mL (≈ 4.22 to 33.8 µM) | 16 to 64 µg/mL (≈ 33.8 to 135 µM) | > 64 µg/mL | 16 to 64 µg/mL (≈ 33.8 to 135 µM) | – | – | – | –
3 | C[C@@H](O)[C@H](NC(=O)c1ccc(Sc2ccc(CN3CCOCC3)cc2)cc1)C(=O)NO [Example 47-5, N-((1S,2R)-2-hydroxy-1-hydroxycarbamoyl-propyl)-4-(4-morpholin-4-ylmethyl-phenylsulfanyl)-benzamide] | – | – | – | – | – | – | – | > 64 µg/mL | > 64 µg/mL | > 64 µg/mL | 16 to 64 µg/mL (≈ 35.9 to 144 µM) | > 64 µg/mL | > 64 µg/mL | > 64 µg/mL | – | – | – | –
4 | C[C@@H](O)[C@H](NC(=O)c1ccc(Cc2ccc(CN3CCOCC3)cc2)cc1)C(=O)NO [Example 48-5, N-((1S,2R)-2-Hydroxy-1-hydroxycarbamoyl-propyl)-4-(4-morpholin-4-ylmethyl-benzyl)-benzamide] | – | – | – | – | – | – | – | > 64 µg/mL | > 64 µg/mL | > 64 µg/mL | > 64 µg/mL | > 64 µg/mL | > 64 µg/mL | > 64 µg/mL | – | – | – | –
5 | CC(C)(N)[C@H](NC(=O)c1ccc(/C=C/C#CC2CCCC2)cc1)C(=O)NO [Example 114-20] | – | – | – | – | – | – | – | < 2 µg/mL | < 2 µg/mL | – | – | < 2 µg/mL | 2 to 16 µg/mL (≈ 5.41 to 43.3 µM) | – | 2 to 16 µg/mL (≈ 5.41 to 43.3 µM) | 2 to 16 µg/mL (≈ 5.41 to 43.3 µM) | < 2 µg/mL | A (MIC's of 2.0 μg/mL or less = A)
6 | CC(C)(N)[C@H](NC(=O)c1ccc(C#CC#CC2CCNCC2)cc1)C(=O)NO [Example 137-23] | – | – | – | – | – | – | – | 16 to 64 µg/mL (≈ 41.8 to 167 µM) | 16 to 64 µg/mL (≈ 41.8 to 167 µM) | – | – | 16 to 64 µg/mL (≈ 41.8 to 167 µM) | 16 to 64 µg/mL (≈ 41.8 to 167 µM) | – | 16 to 64 µg/mL (≈ 41.8 to 167 µM) | 2 to 16 µg/mL (≈ 5.23 to 41.8 µM) | < 2 µg/mL | B (MIC's of greater than 2.0 μg/mL to 16.0 μg/mL = B)
7 | CC(C)/C=C/C#Cc1ccc(C(=O)N[C@H](C(=O)NO)C(C)(C)N)cc1 [Example 107-6] | – | – | – | – | – | – | – | < 2 µg/mL | < 2 µg/mL | – | – | < 2 µg/mL | 16 to 64 µg/mL (≈ 46.6 to 186 µM) | – | 2 to 16 µg/mL (≈ 5.82 to 46.6 µM) | 2 to 16 µg/mL (≈ 5.82 to 46.6 µM) | < 2 µg/mL | A (MIC's of 2.0 μg/mL or less = A)
8 | C[C@@H](N)[C@H](NC(=O)c1ccc(C#C/C=C/c2cccnc2)cc1)C(=O)NO [Example 106-4] | – | – | – | – | – | – | – | 2 to 16 µg/mL (≈ 5.49 to 43.9 µM) | < 2 µg/mL | – | – | 16 to 64 µg/mL (≈ 43.9 to 176 µM) | 16 to 64 µg/mL (≈ 43.9 to 176 µM) | – | 16 to 64 µg/mL (≈ 43.9 to 176 µM) | 2 to 16 µg/mL (≈ 5.49 to 43.9 µM) | < 2 µg/mL | A (MIC's of 2.0 μg/mL or less = A)
9 | C[C@@H](N)[C@H](NC(=O)c1ccc(C#CC#CC2CCC2)cc1)C(=O)NO [Example 91-17] | – | – | – | – | – | – | – | < 2 µg/mL | < 2 µg/mL | – | – | 2 to 16 µg/mL (≈ 5.89 to 47.1 µM) | 16 to 64 µg/mL (≈ 47.1 to 189 µM) | – | 2 to 16 µg/mL (≈ 5.89 to 47.1 µM) | < 2 µg/mL | < 2 µg/mL | A (MIC's of 2.0 μg/mL or less = A)
10 | CC(C)(O)[C@H](NC(=O)c1ccc(C#CC#Cc2ccsc2)cc1)C(=O)NO [Example 88-14] | – | – | – | – | – | – | – | < 2 µg/mL | < 2 µg/mL | – | – | < 2 µg/mL | 16 to 64 µg/mL (≈ 41.8 to 167 µM) | – | 2 to 16 µg/mL (≈ 5.23 to 41.8 µM) | < 2 µg/mL | < 2 µg/mL | A (MIC's of 2.0 μg/mL or less = A)
